Measured values from US20260256741A1, “ANTICANCER MALEIMIDE DERIVATIVES FOR USE WITH IMMUNE CHECKPOINT BLOCKADE” (BROWN UNIVERSITY, priority 2022, published 2026).

Key:
Assay type in all cases: cell-based, human
TALL-104 cells = experiment: Cytokine profiling of cell culture supernatant (Luminex 200), TALL-104
Procedure: Cells were plated at 3.5×10^4 cells in a 48-well plate (Thermo Fisher Scientific, Waltham, MA, USA) in complete medium and incubated at 37° C. with 5% CO2. At 24 hours after plating, almost all the tumor cells were adherent to the bottom of the flask and the complete medium was replaced with the drug-containing medium. […] On the day of analysis, samples were thawed and centrifuged to remove cellular debris.
Human cell line culture supernatants were analyzed using an R&D systems Human Premixed Multi-Analyte Kit (R&D Systems, Inc., Minneapolis, MN, USA) and a Luminex 200 (RRID: SCR_018025) Instrument (LX200-XPON-RUO, Luminex Corporation, Austin, TX, USA) according to the manufacturer's instructions. Sample levels of TNF-α, 4-1BB/TNFRSF9/CD137, IL-8/CXCL8, Ferritin, IFN-β, IL-10, CCL2/JE/MCP-1, VEGF, CXCL13/BLC/BCA-1, IFN-γ, CCL20/MIP-3 α, CCL3/MIP-1 α, CCL22/MDC, CCL4/MIP-1 β, Fas Ligand/TNFSF6, IL-17/IL-17A, IL-2, BAFF/BLyS/TNFSF13B, GM-CSF, CXCL5/ENA-78, TRANCE/TNFSF11/RANK L, CXCL9/MIG, G-CSF, IFN-γ R1/CD119, VEGFR3/Flt-4, C-Reactive Protein/CRP, CXCL11/I-TAC, IL-21, CXCL14/BRAK, IL-6, Fas/TNFRSF6/CD95, TRAIL R3/TNFRSF10C, IL-4, CCL5/RANTES, PD-L1/B7-H1, CCL7/MCP-3/MARC, Chitinase 3-like 1, CXCL10/IP-10/CRG-2, IL-1 β/IL-1F2, IL-7, Prolactin, CCL8/MCP-2, TRAIL R2/TNFRSF10B, M-CSF, IL-15, Granzyme B, IFN-α, TREM-1, IL-12/IL-23 p40, TRAIL/TNFSF10, CCL11/Eotaxin, and IL-18/IL-1F4. Quantitative analysis with 6 standards and a minimum of 50 counts per bead region was used with the Luminex to generate analyte values reported as picograms/milliliter (pg/mL). Sample concentrations less than the lower limit of detection for each particular analyte were recoded as the lower limit value divided by ten. Sample concentrations above the upper limit of detection for a particular analyte were recoded as the upper limit of detection.

[1] = system: NK-92 natural killer cells; experiment: Western blot analysis of NK-92 natural killer cells; conditions: through the 72-hour endpoint
Procedure: Cells were plated in a 6-well plate and incubated overnight before the spent media was replaced with drugged media. Drug treatment lasted for indicated durations. Protein was extracted using radioimmunoprecipitation (RIPA) assay buffer (Cat #R0278, Sigma-Aldrich, St. Louis, MO) containing cOmplete™, Mini, EDTA-free Protease Inhibitor Cocktail (Cat #4693159001, Roche, Basel, Switzerland) from sub-confluent cells. Denaturing sample buffer was added, samples were boiled at 95 degrees for 10 minutes, and an equal amount of protein lysate was electrophoresed through NuPAGE™ 4 to 12%, Bis-Tris, 1.5 mm, Mini Protein Gels (Invitrogen, Waltham, MA) then transferred to PVDF membranes. The PVDF membrane was blocked with 5% non-fat milk (Sigma-Aldrich, St. Louis, MO) in 1×TTBS. Primary antibodies were incubated with the transferred PVDF membrane in blocking buffer at 4° C. overnight. Secondary antibodies used included Goat anti-Rabbit IgG (H+L) Secondary Antibody, HRP (Cat #31460, Invitrogen, Waltham, MA), and Goat anti-Mouse IgG (H+L) Secondary Antibody, HRP (Cat #31430, Invitrogen, Waltham, MA). Signal was detected using Pierce™ ECL Western Blotting Substrate (Cat #32106, Thermo Scientific, Waltham, MA, USA) and a Syngene Imaging System (RRID: SCR_015770).

KM12C cells = experiment: Microarray gene expression analysis, KM12C
Procedure: A total of 0.5×10^6 tumor cells (HCT-116, HT-29, KM12C) were plated in a 6-well plate and allowed to adhere overnight before 24-hour treatment as indicated. 1×10^6 immune cells (NK92, TALL-104) were plated and treated with elraglusib as indicated for 24 hours. RNA was isolated from cell pellets in batches of 6 using an RNeasy Plus Mini Kit (Cat #74134, Qiagen, Hilden, Germany). Acceptable RNA concentration and quality were verified with Nanodrop and Bioanalyzer measurements. GeneChip™ Human Transcriptome Array 2.0 assays were conducted according to manufacturer instructions in two batches using randomized samples to limit batch effects (Cat #902162, Applied Biosystems, Waltham, MA, USA). Applied Biosystems Transcriptomic Analysis Console (TAC) software (RRID: SCR_016519) was used to calculate fold changes in gene expression relative to the untreated control cells. Values were considered statistically significant for p values <0.05.

Cn1cc(C2=C(c3coc4ccc(F)cc34)C(=O)NC2=O)c2cc3c(cc21)OCO3 [elraglusib, 3-(5-fluorobenzofuran-3-yl)-4-(5-methyl-5H-[1,3]dioxolo[4,5-f]indol-7-yl)-1H-pyrrole-2,5-dione]
IFN-γ concentration in supernatant (TALL-104 cells; 1 μM, 48 hours): increases
TRAIL concentration in supernatant (TALL-104 cells; 1 μM, 48 hours): increases
granzyme B concentration in supernatant (TALL-104 cells; 1 μM, 48 hours): increases
IFN-γ in cell culture supernatant (TALL-104 cells; 24 hours treatment vs DMSO): significant increase in IFN-γ
Mcl-1 protein expression [1]: did not observe a significant decrease
GZMA (granzyme A) gene expression fold change (KM12C cells; 24 hours vs DMSO): 1.53 FC
downregulated genes in VEGFA-VEGFR2 signaling pathway (KM12C cells; 24 hours vs DMSO): 48
differentially expressed genes post-treatment (KM12C cells; IC-50 concentration (1 μM), 24 hours, FC cutoff >1.5, <−1.5, p<0.05): 1,032
